Data as given in patent US12617835B2, “Chimeric autoantibody receptor (CAAR) that binds autoantibodies targeting the central nervous system in neurological autoimmune disease” (Deutsches Zentrum für Neurodegenerative Erkrankungen e. V. …, priority 2019, dated 2026).

Legend:
[1] = system: K562 cells expressing NR1-reactive antibodies on their surface; assay: Interferon-γ release on co-culture with K562 cells expressing surface NR1-reactive antibodies; assay type: cell-based; conditions: 50,000 T-cells co-cultured 1:1 with K562 cells, 48 hours
Description: 50,000 CAAR T-cells were co-cultured 1:1 with K562 cells expressing NR1-reactive or control antibodies on their surface for 48 hours.

[2] = system: K562 cells expressing surface NR1-reactive antibodies; assay: Cell lysis of K562 target cells (7-AAD, flow cytometry); assay type: cell-based; conditions: E:T ratios 30:1 to 1:1, 4 hours
Description: For quantification of cell killing, target cells were incubated with CAAR T-cells at different Effector: Target (E:T) ratios ranging from 30:1 to 1:1 for 4 hours. Dead cells were stained by 7-AAD and analyzed by flow cytometry.
Target K562 cells were incubated with CAAR T-cells at different Effector:Target (E:T) ratios ranging from 30:1 to 1:1.

[3] = system: Nalm6 cells with surface-presentation of NR1 autoantibody #003-102; assay: In vivo bioluminescence imaging of Nalm6 burden in mice; conditions: bioluminescence on day 9 (4 days post-treatment); preliminary data
Description: Nalm6 cells with surface-presentation of NR1 autoantibody and expressing a Luciferase enzyme (e.g. firefly-Luciferase) tagged with a fluorescent protein (e.g. GFP), are injected on day 1 into mice. On day 5, therapeutic CAAR-T cells expressing a CAAR of the present invention or control T cells without CAAR expression are injected. Bioluminescence imaging is conducted regularly, for example at time points 1, 5, 8, 12, 15, 19 and 22 days, to assess therapeutic effect against the Nalm6 cells. […]
In order to show therapeutic efficacy in an animal model in vivo, Nalm6 cells with surface-presentation of NR1 autoantibody #003-102 or #008-218 and expressing the Luciferase enzyme firefly-Luciferase (ffluc) tagged with a fluorescent protein (GFP, green fluorescent protein), were injected on day 1 into 16 mice. […] As a read-out of the assay, animal survival, target cell reduction (via in vivo bioluminescence measurements) and serum antibody levels are determined. […]
The potential readouts for the assay relate to bioluminescence imaging quantification (for the detection of in vivo killing), quantification of anti-NR1 serum levels by ELISA (for the detection of reduction of circulating antibodies), and postmortem analysis of treated animals (in order to determine off-target toxicity). […]

[4] = system: Nalm6 target cells expressing NR1-reactive antibody #003-102; assay: Luciferase-assay of specific lysis of Nalm6 target cells, with or without Dasatinib; assay type: cell-based
Description: For quantification of cell killing, Nalm6 target cells expressing NR1-reactive antibody #003-102 were incubated with CAAR T-cells at different Effector:Target (E:T) ratios ranging from 1:2 to 8:1 for 18 hours. Percentage of specific lysis was determined by reduction of bioluminescence in a Luciferase-assay.
Results are depicted in FIG. 10.

ATD-S1-S2-CAAR: T cells transduced with CAAR: CD8 leader/NMDAR ATD-S1-Linker1-S2/Linker2/CD8a TM/CD137 co-stim/CD3z signaling
release of interferon-γ [1]: massively released | killing of K562 cells expressing surface NR1-reactive antibodies [2]: dose-dependent killing | animals with drastic reduction of Nalm6 burden [3]: 5/6 | inactivation of CAAR T cells by Dasatinib ([4]; Dasatinib (safety strategy)): temporarily halted | killing of Nalm6 target cells ([4]; E:T ratios 1:2 to 8:1, 18 hours): dose-dependent killing
